# PMC9856672, “SGC-CAMKK2-1: A Chemical Probe for CAMKK2” (Cells, 2023)
# Experiments:
# [1] = target: T1, NLuc-CAMKK2 (kinase domain) in HEK293 cells (Homo sapiens, UniProt Q96RR4); experiment: CAMKK2 NanoBRET in-cell target engagement assay; format: cell-based; conditions: HEK293 cells transiently transfected with NLuc-CAMKK2
# T1 construct: this assay utilizes a nanoluciferase (NL) fused to the kinase domain of CAMKK2; expressed in transfected cells; host or cells: HEK293
# Experimental: CAMKK2 NanoBRET assay: To quantify the cellular activity of these inhibitors we developed a CAMKK2 NanoBRET target engagement assay [51, 52]. Briefly this assay utilizes a nanoluciferase (NL) fused to the kinase domain of CAMKK2. This NL kinase fusion is then transiently transfected into HEK293 cells and after 24 h, tracer is added to the cells. When the tracer and the NL-CAMKK2 fusion come into proximity they create a BRET signal that can be competed in a dose-dependent manner by the addition of cell-penetrant CAMKK2 inhibitors.
# To evaluate this, we developed a NanoBRET in-cell target engagement assay. For this assay, the CAMKK2 kinase domain fused with a Nanoluciferase (NLuc) tag is transiently transfected into HEK293 cells. After 24 h, a heterobifunctional molecule that consists of an inhibitor that binds to CAMKK2 linked to a BODIPY dye is added to the cells. When the inhibitor–dye hybrid binds to the kinase, the proximity to the NLuc fused to CAMKK2 creates a BRET signal. This signal can then be competed away in a dose-dependent fashion with free inhibitor.
# KIT(D816V) = target: T2, KIT(D816V) (Homo sapiens, UniProt P10721, D816V); experiment: KINOMEscan at 1 μM, KIT(D816V); format: binding; conditions: 1000 nM, read-out: Percent Control
# T2 construct: purchased Eurofins DiscoverX KINOMEscan
# Text: (§1) Supplement cells-12-00287-s001.zip/File S2. KinomeScan data for the CAMKK2 probe and negative control.xlsx, sheet "SGC-CAMKK2-1N" | column: Percent Control
# HIPK1 = target: T3, HIPK1 (Homo sapiens, UniProt Q86Z02); experiment: KINOMEscan at 1 μM, HIPK1; format: binding; conditions: 1000 nM, read-out: Percent Control
# T3 construct: purchased Eurofins DiscoverX KINOMEscan
# Text: as §1
# QSK = target: T4, QSK (Homo sapiens, UniProt Q9Y2K2); experiment: KINOMEscan at 1 μM, QSK; format: binding; conditions: 1000 nM, read-out: Percent Control
# T4 construct: purchased Eurofins DiscoverX KINOMEscan
# Text: as §1
# ASK2 = target: T5, ASK2 (Homo sapiens, UniProt O95382); experiment: KINOMEscan at 1 μM, ASK2; format: binding; conditions: 1000 nM, read-out: Percent Control
# T5 construct: purchased Eurofins DiscoverX KINOMEscan
# Text: as §1
# KIT(V559D) = target: T6, KIT(V559D) (Homo sapiens, UniProt P10721, V559D); experiment: KINOMEscan at 1 μM, KIT(V559D); format: binding; conditions: 1000 nM, read-out: Percent Control
# T6 construct: purchased Eurofins DiscoverX KINOMEscan
# Text: as §1
# TNIK = target: T7, TNIK (Homo sapiens, UniProt Q9UKE5); experiment: KINOMEscan at 1 μM, TNIK; format: binding; conditions: 1000 nM, read-out: Percent Control
# T7 construct: purchased Eurofins DiscoverX KINOMEscan
# Text: as §1
# PIK3CA = target: T8, PIK3CA (Homo sapiens, UniProt P42336); experiment: KINOMEscan at 1 μM, PIK3CA; format: binding; conditions: 1000 nM, read-out: Percent Control
# T8 construct: purchased Eurofins DiscoverX KINOMEscan
# Text: as §1
# TIE2 = target: T9, TIE2 (Homo sapiens, UniProt Q02763); experiment: KINOMEscan at 1 μM, TIE2; format: binding; conditions: 1000 nM, read-out: Percent Control
# T9 construct: purchased Eurofins DiscoverX KINOMEscan
# Text: as §1
# FLT4 = target: T10, FLT4 (Homo sapiens, UniProt P35916); experiment: KINOMEscan at 1 μM, FLT4; format: binding; conditions: 1000 nM, read-out: Percent Control
# T10 construct: purchased Eurofins DiscoverX KINOMEscan
# Text: as §1
# [2] = target: T11, ABL1(T315I)-phosphorylated (Homo sapiens, UniProt P00519, T315I); experiment: KINOMEscan at 1 μM, ABL1(T315I)-phosphorylated; format: binding; conditions: 1000 nM, read-out: Percent Control
# T11 construct: purchased Eurofins DiscoverX KINOMEscan
# Text: as §1
# CDK9 = target: T12, CDK9 (Homo sapiens, UniProt P50750); experiment: KINOMEscan at 1 μM, CDK9; format: binding; conditions: 1000 nM, read-out: Percent Control
# T12 construct: purchased Eurofins DiscoverX KINOMEscan
# Text: as §1
# RIPK1 = target: T13, RIPK1 (Homo sapiens, UniProt Q13546); experiment: KINOMEscan at 1 μM, RIPK1; format: binding; conditions: 1000 nM, read-out: Percent Control
# T13 construct: purchased Eurofins DiscoverX KINOMEscan
# Text: as §1
# MEK1 = target: T14, MEK1 (Homo sapiens, UniProt Q02750); experiment: KINOMEscan at 1 μM, MEK1; format: binding; conditions: 1000 nM, read-out: Percent Control
# T14 construct: purchased Eurofins DiscoverX KINOMEscan
# Text: as §1
# PRKD3 = target: T15, PRKD3 (Homo sapiens, UniProt O94806); experiment: KINOMEscan at 1 μM, PRKD3; format: binding; conditions: 1000 nM, read-out: Percent Control
# T15 construct: purchased Eurofins DiscoverX KINOMEscan
# Text: as §1
# NEK2 = target: T16, NEK2 (Homo sapiens, UniProt P51955); experiment: KINOMEscan at 1 μM, NEK2; format: binding; conditions: 1000 nM, read-out: Percent Control
# T16 construct: purchased Eurofins DiscoverX KINOMEscan
# Text: as §1
# CDC2L2 = target: T17, CDC2L2 (Homo sapiens, UniProt Q9UQ88); experiment: KINOMEscan at 1 μM, CDC2L2; format: binding; conditions: 1000 nM, read-out: Percent Control
# T17 construct: purchased Eurofins DiscoverX KINOMEscan
# Text: as §1
# PFCDPK1(P.falciparum) = target: T18, PFCDPK1(P.falciparum) (Plasmodium falciparum, UniProt P62344); experiment: KINOMEscan binding assay at 1 μM, PFCDPK1(P.falciparum); conditions: Compound Concentration 1000 nM; read-out: Percent Control
# T18 construct: purchased Eurofins DiscoverX KINOMEscan
# Text: as §1
# PRKCQ = target: T19, PRKCQ (Homo sapiens, UniProt Q04759); experiment: KINOMEscan binding assay at 1 μM, PRKCQ; conditions: Compound Concentration 1000 nM; read-out: Percent Control
# T19 construct: purchased Eurofins DiscoverX KINOMEscan
# Text: as §1
# WNK2 = target: T20, WNK2 (Homo sapiens, UniProt Q9Y3S1); experiment: KINOMEscan 1 μM, WNK2; format: binding; conditions: 1000 nM; Entrez WNK2; read-out: Percent Control
# T20 construct: purchased Eurofins DiscoverX KINOMEscan
# Text: (§2) Supplement cells-12-00287-s001.zip/File S2. KinomeScan data for the CAMKK2 probe and negative control.xlsx, sheet "SGC-CAMKK2-1" | column: Percent Control
# PRKX = target: T21, PRKX (Homo sapiens, UniProt P51817); experiment: KINOMEscan 1 μM, PRKX; format: binding; conditions: 1000 nM; Entrez PRKX; read-out: Percent Control
# T21 construct: purchased Eurofins DiscoverX KINOMEscan
# Text: as §2
# [3] = target: T22, RSK1(Kin.Dom.2-C-terminal) (Homo sapiens, UniProt Q15418); experiment: KINOMEscan 1 μM, RSK1(Kin.Dom.2-C-terminal); format: binding; conditions: 1000 nM; Entrez RPS6KA1; read-out: Percent Control
# T22 construct: RSK1(Kin.Dom.2-C-terminal); purchased Eurofins DiscoverX KINOMEscan
# Text: as §2
# MAP4K4 = target: T23, MAP4K4 (Homo sapiens, UniProt O95819); experiment: KINOMEscan 1 μM, MAP4K4; format: binding; conditions: 1000 nM; Entrez MAP4K4; read-out: Percent Control
# T23 construct: purchased Eurofins DiscoverX KINOMEscan
# Text: as §2
# SLK = target: T24, SLK (Homo sapiens, UniProt Q9H2G2); experiment: KINOMEscan 1 μM, SLK; format: binding; conditions: 1000 nM; Entrez SLK; read-out: Percent Control
# T24 construct: purchased Eurofins DiscoverX KINOMEscan
# Text: as §2
# LIMK2 = target: T25, LIMK2 (Homo sapiens, UniProt P53671); experiment: KINOMEscan 1 μM, LIMK2; format: binding; conditions: 1000 nM; Entrez LIMK2; read-out: Percent Control
# T25 construct: purchased Eurofins DiscoverX KINOMEscan
# Text: as §2
# PRKCE = target: T26, PRKCE (Homo sapiens, UniProt Q02156); experiment: KINOMEscan 1 μM, PRKCE; format: binding; conditions: 1000 nM; Entrez PRKCE; read-out: Percent Control
# T26 construct: purchased Eurofins DiscoverX KINOMEscan
# Text: as §2
# TAOK2 = target: T27, TAOK2 (Homo sapiens, UniProt Q9UL54); experiment: KINOMEscan 1 μM, TAOK2; format: binding; conditions: 1000 nM; Entrez TAOK2; read-out: Percent Control
# T27 construct: purchased Eurofins DiscoverX KINOMEscan
# Text: as §2
# RET = target: T28, RET (Homo sapiens, UniProt P07949); experiment: KINOMEscan 1 μM, RET; format: binding; conditions: 1000 nM; Entrez RET; read-out: Percent Control
# T28 construct: purchased Eurofins DiscoverX KINOMEscan
# Text: as §2
# EGFR(T790M) = target: T29, EGFR(T790M) (Homo sapiens, UniProt P00533, T790M); experiment: KINOMEscan 1 μM, EGFR(T790M); format: binding; conditions: 1000 nM; Entrez EGFR; read-out: Percent Control
# T29 construct: purchased Eurofins DiscoverX KINOMEscan
# Text: as §2
# HIPK3 = target: T30, HIPK3 (Homo sapiens, UniProt Q9H422); experiment: KINOMEscan 1 μM, HIPK3; format: binding; conditions: 1000 nM; Entrez HIPK3; read-out: Percent Control
# T30 construct: purchased Eurofins DiscoverX KINOMEscan
# Text: as §2
# MARK4 = target: T31, MARK4 (Homo sapiens, UniProt Q96L34); experiment: KINOMEscan 1 μM, MARK4; format: binding; conditions: 1000 nM; Entrez MARK4; read-out: Percent Control
# T31 construct: purchased Eurofins DiscoverX KINOMEscan
# Text: as §2
# ULK3 = target: T32, ULK3 (Homo sapiens, UniProt Q6PHR2); experiment: DiscoverX KINOMEscan binding assay at 1 μM, ULK3; conditions: Compound Concentration 1000 nM, read-out: Percent Control
# T32 construct: purchased Eurofins DiscoverX KINOMEscan
# Text: as §2
# VRK2 = target: T33, VRK2 (Homo sapiens, UniProt Q86Y07); experiment: DiscoverX KINOMEscan binding assay at 1 μM, VRK2; conditions: Compound Concentration 1000 nM, read-out: Percent Control
# T33 construct: purchased Eurofins DiscoverX KINOMEscan
# Text: as §2
# T3 sequence (Q86Z02 whole entry): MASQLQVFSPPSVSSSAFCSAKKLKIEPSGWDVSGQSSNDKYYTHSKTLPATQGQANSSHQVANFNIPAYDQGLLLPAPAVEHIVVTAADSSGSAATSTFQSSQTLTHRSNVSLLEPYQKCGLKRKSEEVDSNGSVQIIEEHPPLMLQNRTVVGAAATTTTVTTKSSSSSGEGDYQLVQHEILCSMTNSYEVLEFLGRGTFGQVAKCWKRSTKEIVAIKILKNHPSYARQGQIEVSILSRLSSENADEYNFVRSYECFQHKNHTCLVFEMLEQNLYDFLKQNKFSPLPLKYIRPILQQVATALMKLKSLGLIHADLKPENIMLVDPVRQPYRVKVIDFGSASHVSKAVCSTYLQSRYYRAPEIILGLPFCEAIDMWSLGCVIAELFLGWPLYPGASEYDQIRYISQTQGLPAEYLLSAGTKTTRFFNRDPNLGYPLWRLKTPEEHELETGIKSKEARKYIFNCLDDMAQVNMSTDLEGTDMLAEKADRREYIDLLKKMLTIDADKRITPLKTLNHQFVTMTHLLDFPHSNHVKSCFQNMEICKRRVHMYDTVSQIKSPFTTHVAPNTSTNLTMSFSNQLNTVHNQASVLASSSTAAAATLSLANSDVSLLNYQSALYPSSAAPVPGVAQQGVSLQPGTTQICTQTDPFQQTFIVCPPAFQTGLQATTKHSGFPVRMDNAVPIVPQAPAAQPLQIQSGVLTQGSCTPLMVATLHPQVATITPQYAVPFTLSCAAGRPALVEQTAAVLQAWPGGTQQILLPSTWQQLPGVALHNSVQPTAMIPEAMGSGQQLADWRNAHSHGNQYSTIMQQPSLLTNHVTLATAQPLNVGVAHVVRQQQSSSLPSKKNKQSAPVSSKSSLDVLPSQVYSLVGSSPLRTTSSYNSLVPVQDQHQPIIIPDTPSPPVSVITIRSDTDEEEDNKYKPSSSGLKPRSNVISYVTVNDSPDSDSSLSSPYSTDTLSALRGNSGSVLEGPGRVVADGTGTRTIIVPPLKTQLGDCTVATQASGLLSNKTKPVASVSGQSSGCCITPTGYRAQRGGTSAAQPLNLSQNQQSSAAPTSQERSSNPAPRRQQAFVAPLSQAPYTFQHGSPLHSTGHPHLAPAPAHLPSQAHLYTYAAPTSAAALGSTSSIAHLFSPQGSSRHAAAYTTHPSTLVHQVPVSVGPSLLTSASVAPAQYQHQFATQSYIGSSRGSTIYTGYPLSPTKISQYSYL
# T22 sequence (Q15418 392-735 limits assumed): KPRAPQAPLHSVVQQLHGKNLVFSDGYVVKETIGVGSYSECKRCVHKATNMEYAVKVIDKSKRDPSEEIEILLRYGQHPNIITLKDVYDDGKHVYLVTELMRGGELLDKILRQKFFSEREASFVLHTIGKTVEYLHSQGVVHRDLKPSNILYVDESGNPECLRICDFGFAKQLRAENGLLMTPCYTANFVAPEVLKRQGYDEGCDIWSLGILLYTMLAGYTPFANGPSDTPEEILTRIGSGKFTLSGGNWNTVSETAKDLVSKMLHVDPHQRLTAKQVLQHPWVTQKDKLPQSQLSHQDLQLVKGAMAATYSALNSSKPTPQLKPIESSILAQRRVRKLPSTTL
# T30 sequence (Q9H422 whole entry): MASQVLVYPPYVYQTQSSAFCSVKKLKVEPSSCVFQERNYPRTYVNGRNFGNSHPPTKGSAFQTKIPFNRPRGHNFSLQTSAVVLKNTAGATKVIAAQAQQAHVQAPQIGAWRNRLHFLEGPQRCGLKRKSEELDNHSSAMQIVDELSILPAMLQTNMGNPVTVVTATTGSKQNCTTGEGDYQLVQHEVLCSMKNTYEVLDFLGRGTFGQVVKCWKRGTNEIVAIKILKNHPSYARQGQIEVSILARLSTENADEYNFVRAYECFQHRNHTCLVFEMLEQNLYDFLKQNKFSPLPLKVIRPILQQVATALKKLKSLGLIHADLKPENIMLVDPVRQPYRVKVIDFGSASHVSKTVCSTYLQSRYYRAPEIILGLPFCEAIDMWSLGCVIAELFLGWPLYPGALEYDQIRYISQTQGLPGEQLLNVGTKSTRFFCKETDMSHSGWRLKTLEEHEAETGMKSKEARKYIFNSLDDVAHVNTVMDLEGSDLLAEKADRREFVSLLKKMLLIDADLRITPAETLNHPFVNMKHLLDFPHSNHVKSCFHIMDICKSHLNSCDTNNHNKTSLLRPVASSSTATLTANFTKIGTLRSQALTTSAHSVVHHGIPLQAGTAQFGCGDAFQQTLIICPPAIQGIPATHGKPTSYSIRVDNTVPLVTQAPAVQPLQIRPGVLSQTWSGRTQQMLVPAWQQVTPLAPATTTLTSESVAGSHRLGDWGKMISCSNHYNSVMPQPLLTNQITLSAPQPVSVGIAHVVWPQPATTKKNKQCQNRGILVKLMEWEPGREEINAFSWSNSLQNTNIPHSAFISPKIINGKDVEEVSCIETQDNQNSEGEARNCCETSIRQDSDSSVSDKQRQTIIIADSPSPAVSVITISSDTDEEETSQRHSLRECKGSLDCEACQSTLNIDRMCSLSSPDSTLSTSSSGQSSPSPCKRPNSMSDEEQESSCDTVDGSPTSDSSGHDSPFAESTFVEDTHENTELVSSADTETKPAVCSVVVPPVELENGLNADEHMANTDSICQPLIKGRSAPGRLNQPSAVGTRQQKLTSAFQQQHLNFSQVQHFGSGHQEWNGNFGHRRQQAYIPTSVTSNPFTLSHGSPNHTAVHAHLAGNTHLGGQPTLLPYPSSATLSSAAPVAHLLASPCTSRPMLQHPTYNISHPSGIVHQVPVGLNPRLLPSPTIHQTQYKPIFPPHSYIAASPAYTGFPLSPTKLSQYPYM
# T26 sequence (Q02156 whole entry): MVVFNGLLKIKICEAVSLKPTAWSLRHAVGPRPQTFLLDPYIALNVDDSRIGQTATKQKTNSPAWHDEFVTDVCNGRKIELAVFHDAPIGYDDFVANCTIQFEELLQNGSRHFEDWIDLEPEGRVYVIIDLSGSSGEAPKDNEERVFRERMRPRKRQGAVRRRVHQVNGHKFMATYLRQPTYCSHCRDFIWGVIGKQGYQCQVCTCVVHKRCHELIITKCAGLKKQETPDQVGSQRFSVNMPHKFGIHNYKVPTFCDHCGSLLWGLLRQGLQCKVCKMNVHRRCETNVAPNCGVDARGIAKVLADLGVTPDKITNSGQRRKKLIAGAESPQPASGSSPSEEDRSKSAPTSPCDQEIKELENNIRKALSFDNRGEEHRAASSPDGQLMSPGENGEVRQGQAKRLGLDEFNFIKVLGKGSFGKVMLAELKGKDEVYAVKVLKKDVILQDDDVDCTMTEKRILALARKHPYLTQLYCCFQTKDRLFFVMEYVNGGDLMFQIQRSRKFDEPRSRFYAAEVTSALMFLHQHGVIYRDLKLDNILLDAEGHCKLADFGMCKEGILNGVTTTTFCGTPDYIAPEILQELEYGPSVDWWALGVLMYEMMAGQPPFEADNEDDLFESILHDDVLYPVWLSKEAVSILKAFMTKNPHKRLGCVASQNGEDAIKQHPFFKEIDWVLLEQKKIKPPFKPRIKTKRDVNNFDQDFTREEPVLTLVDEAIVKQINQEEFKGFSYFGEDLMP
# T12 sequence (P50750 whole entry): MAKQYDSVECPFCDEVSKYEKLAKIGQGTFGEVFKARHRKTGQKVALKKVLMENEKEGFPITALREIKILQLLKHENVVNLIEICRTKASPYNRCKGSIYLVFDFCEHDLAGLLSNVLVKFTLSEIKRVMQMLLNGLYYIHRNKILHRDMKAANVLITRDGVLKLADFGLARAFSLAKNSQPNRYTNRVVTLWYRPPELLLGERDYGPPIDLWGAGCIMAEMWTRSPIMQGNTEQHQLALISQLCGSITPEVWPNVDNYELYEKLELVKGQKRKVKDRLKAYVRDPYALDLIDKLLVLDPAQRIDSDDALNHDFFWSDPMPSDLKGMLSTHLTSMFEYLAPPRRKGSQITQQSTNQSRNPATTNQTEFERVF
# T6 sequence (P10721 26-976 V559D): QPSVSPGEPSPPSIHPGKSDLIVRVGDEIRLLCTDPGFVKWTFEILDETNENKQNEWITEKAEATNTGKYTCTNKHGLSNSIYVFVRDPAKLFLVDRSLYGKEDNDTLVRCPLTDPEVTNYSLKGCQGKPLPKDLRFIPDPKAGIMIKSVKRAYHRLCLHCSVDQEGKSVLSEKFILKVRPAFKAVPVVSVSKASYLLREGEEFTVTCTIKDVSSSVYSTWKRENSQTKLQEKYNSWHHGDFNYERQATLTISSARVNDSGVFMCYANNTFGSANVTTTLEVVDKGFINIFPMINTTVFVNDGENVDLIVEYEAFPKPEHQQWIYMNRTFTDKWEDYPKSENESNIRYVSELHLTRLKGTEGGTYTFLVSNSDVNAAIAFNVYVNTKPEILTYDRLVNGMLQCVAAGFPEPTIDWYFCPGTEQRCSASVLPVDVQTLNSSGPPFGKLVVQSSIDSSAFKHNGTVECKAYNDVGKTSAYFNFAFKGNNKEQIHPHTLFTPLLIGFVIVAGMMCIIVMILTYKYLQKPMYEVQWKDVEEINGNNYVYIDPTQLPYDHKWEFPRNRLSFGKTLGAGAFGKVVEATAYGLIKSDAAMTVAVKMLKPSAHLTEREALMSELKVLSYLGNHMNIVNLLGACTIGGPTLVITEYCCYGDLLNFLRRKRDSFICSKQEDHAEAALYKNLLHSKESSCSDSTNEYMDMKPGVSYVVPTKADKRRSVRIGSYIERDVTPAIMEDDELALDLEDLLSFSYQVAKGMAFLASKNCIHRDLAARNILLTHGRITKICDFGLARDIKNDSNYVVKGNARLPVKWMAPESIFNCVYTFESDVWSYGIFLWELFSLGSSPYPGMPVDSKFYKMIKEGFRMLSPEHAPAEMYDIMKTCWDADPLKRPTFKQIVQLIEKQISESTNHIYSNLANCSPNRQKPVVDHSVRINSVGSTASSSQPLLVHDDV
# T2 sequence (P10721 26-976 D816V): as the sequence (P10721 26-976 V559D) above, with D534V, D791V counted along it
compound,measurement,setting,value
Cc1cccc(-c2cnc3occ(-c4ccc(C(=O)O)c(C5CCCC5)c4)c3c2)c1 [Compound 5],IC50,[1],270 nM
O=C(O)c1ccc(-c2coc3ncc(-c4ccccc4)cc23)cc1Cl [SGC-CAMKK2-1N (UNC-YL-83)],remaining binding at 1 µM,KIT(D816V),32%
same,remaining binding at 1 µM,HIPK1,44%
same,remaining binding at 1 µM,QSK,46%
same,remaining binding at 1 µM,ASK2,56%
same,remaining binding at 1 µM,KIT(V559D),70%
same,remaining binding at 1 µM,TNIK,73%
same,remaining binding at 1 µM,PIK3CA,74%
same,remaining binding at 1 µM,TIE2,79%
same,remaining binding at 1 µM,FLT4,82%
same,remaining binding at 1 µM,[2],84%
same,remaining binding at 1 µM,CDK9,89%
same,remaining binding at 1 µM,RIPK1,90%
same,remaining binding at 1 µM,MEK1,93%
same,remaining binding at 1 µM,PRKD3,93%
same,remaining binding at 1 µM,NEK2,97%
same,remaining binding at 1 µM,CDC2L2,100%
same,remaining binding at 1 µM,PFCDPK1(P.falciparum),100%
same,remaining binding at 1 µM,PRKCQ,100%
Cc1cccc(-c2cnc3occ(-c4ccc(C(=O)O)c(C5CCCC5)c4)c3c2)c1 [SGC-CAMKK2-1 (YL-36)],remaining binding at 1 µM,WNK2,67%
same,remaining binding at 1 µM,PRKX,79%
same,remaining binding at 1 µM,[3],80%
same,remaining binding at 1 µM,MAP4K4,85%
same,remaining binding at 1 µM,SLK,85%
same,remaining binding at 1 µM,LIMK2,86%
same,remaining binding at 1 µM,PRKCE,90%
same,remaining binding at 1 µM,TAOK2,90%
same,remaining binding at 1 µM,RET,98%
same,remaining binding at 1 µM,EGFR(T790M),100%
same,remaining binding at 1 µM,HIPK3,100%
same,remaining binding at 1 µM,MARK4,100%
same,remaining binding at 1 µM,ULK3,100%
same,remaining binding at 1 µM,VRK2,100%
